According to PMC11582173, “Synthesis, cytotoxicity, anti-inflammatory, anti-metastatic and anti-oxidant activities of novel chalcones incorporating 2-phenoxy-N-arylacetamide and thiophene moieties: induction of apoptosis in MCF7 and HEP2 cells” (Naunyn-Schmiedeberg's Archives of Pharmacology, 2024):

Tested on: AKT1 gene
Test: Real-time PCR, AKT1 gene expression
Assay type: cell-based, human
Settings: relative to untreated control (1)
Experimental: The expression level of the following six genes (Ki-67, Survivin, Interleukin-1 beta (IL-1B), Interleukin-6 (IL-6), Cyclooxygenase-2 (COX-2) and protein kinase B (AKT1)) was determined in MCF7 and HEP2 treated with the IC50 of compound 5c. The untreated cells were used as a negative control for comparison purposes. […] Ki-67 is a popular proliferation marker for human tumor cells. […] Survivin is an inhibitor of apoptotic protein (IAP) family member, which is essential for cell division. The lowering of the expression of survivin inhibited tumor development, triggered apoptosis, and made tumor cells more susceptible to radiation and chemotherapy (Albadari and Li [2023]). […] IL-1B is a pleiotropic mediator of inflammation, which is produced in response to a variety of stressors (Aarreberg et al. [2019]). […] IL-6 is a pro-inflammatory cytokine that plays a significant role in the proliferation and differentiation of human cells. It promotes the production of numerous proteins involved in acute inflammation (Uciechowski and Dempke [2020]). […]
The expression level of the following six genes (Ki-67, survivin, AKT1, IL-6, COX2, and IL-1B) was examined using real-time polymerase chain reaction (qPCR) (Mohamed et al. [2023a]). […] The cycle threshold (Ct) was determined automatically. […]

COc1ccc(NC(=O)COc2ccc(C=CC(=O)c3cccs3)cc2)cc1 [Compound 5c, N-(4-Methoxyphenyl)-2-(4-(3-oxo-3-(thiophen-2-yl)prop-1-en-1-yl)phenoxy)acetamide]
AKT1 expression folding (HEP2 cells treated with IC50 of 5c): 0.381±0.011 fold | AKT1 expression folding (MCF7 cells treated with IC50 of 5c): 0.402±0.068 fold
